Data on 2 compounds can be found in patent US20210269453A1, “Bryoid Compositions, Methods of Making and Use Thereof” (Aphios Corporation, priority 2018, published 2021).

This assay deals with alpha-secretase. The experiment in a line: Effect of purified Bryoids on alpha-secretase activity in SHSY-5Y neuroblastoma cells (FIG. 10). The class given is cell-based. The following applies: 10-^9M, FIG. 10, relative to Bryostatin-1. From the text: FIG. 10 depicts the effect of Bryostatin-1 and different Bryoids at 10-^9M on alpha-secretase activity in SHSY-5Y neuroblastoma cells;
Purified Bryoids at 10-^9M are shown to increase alpha-secretase activity in SHSY-5Y neuroblastoma cells in FIG. 10.

In the case of bryostatin-3 26-ketone [Bryoid B16], the alpha-secretase activity entry is reported as “improve the production of alpha-secretase over Bryostatin-1”.
Consider `CCC/C=C/C=C/C(=O)O[C@H]1[C@H]2C=C3C[C@H]([C@@H](C)O)OC(=O)C[C@H](O)C[C@@H]4C[C@H](OC(C)=O)C(C)(C)[C@](O)(C[C@@H]5C/C(=C\C(=O)OC)C[C@H](/C=C/C(C)(C)[C@]1(OC(=O)C2)O3)O5)O4` [Bryoid B3, Bryostatin-3], for which the alpha-secretase activity result is “improve the production of alpha-secretase over Bryostatin-1”.
